Usually IC50 stands for the midpoint of a concentration-inhibition curve. Read a low IC50 as higher potency.

The target of the test is Gag-Pol polyprotein (Human immunodeficiency virus type 1 group M subtype B (isolate NY5), UniProt P12497). Nature of the test: HIV Integrase Inhibitory Assay. The settings on record: 25 °C.
On to `COC[C@@H]1Cn2cc(-c3nnc(Cc4ccc(F)cc4)s3)c(=O)c(O)c2C(=O)N1C(C)C` [US10065950, Example 3], for which the IC50 turned out to be 8.5 nM.

Compound `COC[C@H]1CN(C(C)C)C(=O)c2c(O)c(=O)c(-c3nnc(Cc4ccc(F)cc4)s3)cn21` [US10065950, Example 4] returned an IC50 of 10 nM.

On to `CC(C)N1C[C@H](C)n2cc(-c3nnc(Cc4ccc(F)cc4)s3)c(=O)c(O)c2C1=O` [US10065950, Example 5], for which half-maximal inhibition (IC50) was put at 7.4 nM.

`CC(C)N1C(=O)c2c(O)c(=O)c(-c3nnc(Cc4ccc(F)cc4)s3)cn2C[C@H]1C` [US10065950, Example 6] came in with an IC50 of 5.6 nM.

As for `CCN1C(=O)c2c(O)c(=O)c(-c3nnc(Cc4ccc(F)cc4)s3)cn2C[C@H]1COC` [US10065950, Example 9], the IC50 turned out to be 9.1 nM.

In the case of `COC[C@@H]1Cn2cc(-c3nnc(Cc4ccc(F)cc4)s3)c(=O)c(O)c2C(=O)N1CC1CC1` [US10065950, Example 10], half-maximal inhibition (IC50) required 8.8 nM.

`CCOC[C@@H]1Cn2cc(-c3nnc(Cc4ccc(F)cc4)s3)c(=O)c(O)c2C(=O)N1CC1CC1` [US10065950, Example 11] returned an IC50 of 6.4 nM.

For `CCOC[C@@H]1Cn2cc(-c3nnc(Cc4ccc(F)cc4)s3)c(=O)c(O)c2C(=O)N1C(C)C` [US10065950, Example 12], the IC50 was found to be 7.3 nM.

On to `CCOC[C@@H]1Cn2cc(-c3nnc(Cc4ccc(F)cc4)s3)c(=O)c(O)c2C(=O)N1CC` [US10065950, Example 13], for which 6.4 nM corresponded to half-maximal inhibition (IC50).

`CCN1C(=O)c2c(O)c(=O)c(-c3nnc(Cc4ccc(F)cc4)s3)cn2[C@@H](C)[C@H]1COC` [US10065950, Example 14] yielded a half-inhibitory concentration (IC50) of 10 nM.

For the compound `COCCOC[C@H]1CN(C(C)C)C(=O)c2c(O)c(=O)c(-c3nnc(Cc4ccc(F)cc4)s3)cn21` [US10065950, Example 15], the IC50 was determined as 13 nM.

`COCCOC[C@H]1CN(C2CC2)C(=O)c2c(O)c(=O)c(-c3nnc(Cc4ccc(F)cc4)s3)cn21` [US10065950, Example 16] showed an IC50 of 20 nM.

In turn, `CCN1C[C@](C)(C(=O)N2CCC2)n2cc(-c3ncc(Cc4ccc(F)cc4)s3)c(=O)c(O)c2C1=O` [US10065950, Example 17] yielded an IC50 of 7.9 nM.

(Values after BindingDB's records for patent US10065950 (Japan Tobacco Inc, 2018).)
